Laboratory results: patent US20250042856A1, “CRYSTALLINE FORM OF (R)-2-(TERT-BUTYLAMINO)-1-(5-FLUOROPYRIDIN-3-YL)-ETHAN-1-OL HEMI-TARTRATE SALT FOR THE TREATMENT OF HYPERGLYCEMIA AND DIABETES 2” (ATROGI AB, priority 2021, published 2025)

Assay: TGMS mass loss due to water after exposure to stress conditions
Type: physicochemical
Conditions: between 6° and 160° C., after 2 days at 40° C. and 75% RH

SMILES: CC(C)(C)NC[C@H](O)c1cncc(F)c1.O=C(O)C(=O)O [Comparative Salt Example 9]
- mass loss (TGMS): no significant mass loss
